Source: BindingDB's records for PubMed 11454918
Counter-ions that a name gives are not always drawn.

What was measured:
[1] = target: T1, Alpha-1A adrenergic receptor (Homo sapiens, UniProt P35348)
T1 sequence (P35348 whole entry): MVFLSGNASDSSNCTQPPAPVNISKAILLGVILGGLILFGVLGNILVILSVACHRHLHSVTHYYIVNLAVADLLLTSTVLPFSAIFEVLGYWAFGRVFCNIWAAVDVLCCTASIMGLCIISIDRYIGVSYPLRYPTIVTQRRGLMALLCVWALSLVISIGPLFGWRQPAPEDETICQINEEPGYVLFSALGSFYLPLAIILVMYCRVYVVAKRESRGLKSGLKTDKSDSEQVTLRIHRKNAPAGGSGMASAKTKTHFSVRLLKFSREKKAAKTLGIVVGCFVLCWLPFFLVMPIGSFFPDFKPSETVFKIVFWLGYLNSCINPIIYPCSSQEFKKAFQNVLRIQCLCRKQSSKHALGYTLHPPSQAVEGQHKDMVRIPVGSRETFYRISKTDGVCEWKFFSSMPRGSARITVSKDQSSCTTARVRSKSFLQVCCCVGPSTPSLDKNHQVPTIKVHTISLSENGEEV

[2] = target: T2, Alpha-2C adrenergic receptor (Rattus norvegicus, UniProt P22086)
T2 sequence (P22086 whole entry): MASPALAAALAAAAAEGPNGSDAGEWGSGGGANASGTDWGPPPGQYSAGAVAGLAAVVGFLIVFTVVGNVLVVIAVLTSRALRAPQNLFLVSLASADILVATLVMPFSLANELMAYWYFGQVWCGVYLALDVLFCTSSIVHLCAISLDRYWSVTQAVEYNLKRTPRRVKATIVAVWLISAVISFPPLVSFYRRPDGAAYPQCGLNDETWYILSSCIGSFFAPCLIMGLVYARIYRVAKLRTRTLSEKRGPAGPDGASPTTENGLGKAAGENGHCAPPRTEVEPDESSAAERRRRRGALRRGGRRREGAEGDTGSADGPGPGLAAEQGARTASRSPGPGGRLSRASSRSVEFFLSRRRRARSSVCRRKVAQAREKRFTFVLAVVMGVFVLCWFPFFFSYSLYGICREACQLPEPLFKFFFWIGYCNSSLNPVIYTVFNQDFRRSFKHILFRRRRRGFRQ

[3] = target: T3, Alpha-2A adrenergic receptor (Homo sapiens, UniProt P08913)
T3 sequence (P08913 whole entry): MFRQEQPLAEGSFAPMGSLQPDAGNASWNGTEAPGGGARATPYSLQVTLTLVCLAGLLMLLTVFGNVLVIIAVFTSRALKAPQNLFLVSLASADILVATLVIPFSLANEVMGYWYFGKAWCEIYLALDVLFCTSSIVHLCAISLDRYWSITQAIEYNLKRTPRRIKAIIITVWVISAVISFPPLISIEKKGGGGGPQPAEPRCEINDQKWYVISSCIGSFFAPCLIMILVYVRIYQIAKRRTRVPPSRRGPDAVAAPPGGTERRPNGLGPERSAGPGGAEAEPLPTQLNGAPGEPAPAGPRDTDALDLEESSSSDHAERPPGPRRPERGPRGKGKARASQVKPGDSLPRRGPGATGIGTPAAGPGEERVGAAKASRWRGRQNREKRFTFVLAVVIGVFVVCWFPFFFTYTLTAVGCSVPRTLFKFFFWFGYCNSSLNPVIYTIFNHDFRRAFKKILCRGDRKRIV

[4] = target: T4, 5-hydroxytryptamine receptor 1A (Homo sapiens, UniProt P08908)
T4 sequence (P08908 whole entry): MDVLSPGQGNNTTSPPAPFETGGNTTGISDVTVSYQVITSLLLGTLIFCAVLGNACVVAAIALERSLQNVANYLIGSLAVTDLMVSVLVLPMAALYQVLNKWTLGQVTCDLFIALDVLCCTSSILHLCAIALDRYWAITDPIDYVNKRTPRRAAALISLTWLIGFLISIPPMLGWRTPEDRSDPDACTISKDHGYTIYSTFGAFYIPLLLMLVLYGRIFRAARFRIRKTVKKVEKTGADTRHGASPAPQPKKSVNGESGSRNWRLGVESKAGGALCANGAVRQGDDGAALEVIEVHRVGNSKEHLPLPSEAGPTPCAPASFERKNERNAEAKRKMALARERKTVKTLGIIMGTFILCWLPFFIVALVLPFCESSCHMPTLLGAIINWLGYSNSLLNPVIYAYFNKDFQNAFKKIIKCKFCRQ

[5] = target: D(2) dopamine receptor (Homo sapiens, UniProt P14416)
Sequence of D(2) dopamine receptor (P14416 whole entry): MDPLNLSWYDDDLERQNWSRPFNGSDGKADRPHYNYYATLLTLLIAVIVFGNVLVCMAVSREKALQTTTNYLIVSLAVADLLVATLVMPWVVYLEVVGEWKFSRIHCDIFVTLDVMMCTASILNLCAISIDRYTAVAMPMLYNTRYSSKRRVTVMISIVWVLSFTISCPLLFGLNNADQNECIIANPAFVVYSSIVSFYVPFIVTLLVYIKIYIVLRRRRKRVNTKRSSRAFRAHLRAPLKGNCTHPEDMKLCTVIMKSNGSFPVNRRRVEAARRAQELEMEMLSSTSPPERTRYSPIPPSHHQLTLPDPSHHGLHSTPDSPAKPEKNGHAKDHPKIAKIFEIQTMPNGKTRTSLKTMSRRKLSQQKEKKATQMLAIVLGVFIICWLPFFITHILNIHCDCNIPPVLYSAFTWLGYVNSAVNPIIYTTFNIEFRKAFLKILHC

[6] = target: T5, 5-hydroxytryptamine receptor 2C (Homo sapiens, UniProt P28335)
T5 sequence (P28335 whole entry): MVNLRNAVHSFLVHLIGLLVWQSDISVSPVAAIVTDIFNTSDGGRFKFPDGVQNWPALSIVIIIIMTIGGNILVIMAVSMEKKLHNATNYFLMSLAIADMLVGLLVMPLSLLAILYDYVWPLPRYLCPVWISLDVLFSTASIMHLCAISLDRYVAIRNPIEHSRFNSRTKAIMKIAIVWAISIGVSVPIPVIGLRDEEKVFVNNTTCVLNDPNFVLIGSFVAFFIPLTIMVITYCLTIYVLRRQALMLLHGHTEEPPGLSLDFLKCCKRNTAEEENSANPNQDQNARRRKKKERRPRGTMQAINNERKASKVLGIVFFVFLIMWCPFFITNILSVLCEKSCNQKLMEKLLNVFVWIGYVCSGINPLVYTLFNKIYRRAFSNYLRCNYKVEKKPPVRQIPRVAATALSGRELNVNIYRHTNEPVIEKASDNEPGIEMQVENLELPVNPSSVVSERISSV

[7] = target: 5-hydroxytryptamine receptor 1D (Homo sapiens, UniProt P28221)
Sequence of 5-hydroxytryptamine receptor 1D (P28221 whole entry): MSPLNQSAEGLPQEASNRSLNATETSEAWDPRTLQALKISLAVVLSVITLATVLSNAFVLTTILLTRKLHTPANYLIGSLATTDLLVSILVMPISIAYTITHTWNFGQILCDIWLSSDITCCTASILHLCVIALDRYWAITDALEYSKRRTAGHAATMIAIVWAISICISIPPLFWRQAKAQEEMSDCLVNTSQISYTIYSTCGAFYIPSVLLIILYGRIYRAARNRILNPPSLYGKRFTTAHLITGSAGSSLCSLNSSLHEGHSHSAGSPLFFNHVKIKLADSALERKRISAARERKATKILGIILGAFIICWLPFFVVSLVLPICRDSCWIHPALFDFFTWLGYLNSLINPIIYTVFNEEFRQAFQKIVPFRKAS

[8] = target: T6, Alpha-1A adrenergic receptor (Rattus norvegicus, UniProt P43140)
T6 sequence (P43140 whole entry): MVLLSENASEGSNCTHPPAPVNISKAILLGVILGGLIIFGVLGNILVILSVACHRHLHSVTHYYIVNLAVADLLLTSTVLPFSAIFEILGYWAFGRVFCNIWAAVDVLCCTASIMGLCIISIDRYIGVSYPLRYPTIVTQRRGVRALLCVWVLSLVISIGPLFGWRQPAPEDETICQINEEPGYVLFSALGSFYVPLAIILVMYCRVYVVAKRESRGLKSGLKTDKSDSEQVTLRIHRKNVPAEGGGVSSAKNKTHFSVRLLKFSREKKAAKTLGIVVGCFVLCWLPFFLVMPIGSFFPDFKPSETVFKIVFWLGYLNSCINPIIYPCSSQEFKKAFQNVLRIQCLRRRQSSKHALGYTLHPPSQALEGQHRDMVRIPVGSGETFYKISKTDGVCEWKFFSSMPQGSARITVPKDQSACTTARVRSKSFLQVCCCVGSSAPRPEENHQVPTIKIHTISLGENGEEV

[9] = target: 5-hydroxytryptamine receptor 1B (Homo sapiens, UniProt P28222)
Sequence of 5-hydroxytryptamine receptor 1B (P28222 whole entry): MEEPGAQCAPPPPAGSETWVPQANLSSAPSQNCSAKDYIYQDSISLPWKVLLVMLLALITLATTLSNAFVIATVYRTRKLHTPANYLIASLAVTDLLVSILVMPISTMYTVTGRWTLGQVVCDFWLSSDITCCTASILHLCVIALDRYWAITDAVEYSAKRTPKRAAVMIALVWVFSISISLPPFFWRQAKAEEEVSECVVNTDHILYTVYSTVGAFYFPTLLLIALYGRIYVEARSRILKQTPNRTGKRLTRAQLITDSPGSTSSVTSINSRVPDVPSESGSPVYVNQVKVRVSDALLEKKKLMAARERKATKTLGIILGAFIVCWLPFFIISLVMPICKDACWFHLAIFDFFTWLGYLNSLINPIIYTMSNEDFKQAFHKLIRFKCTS

[10] = target: Sodium-dependent serotonin transporter (Rattus norvegicus, UniProt P31652)
Sequence of Sodium-dependent serotonin transporter (P31652 whole entry): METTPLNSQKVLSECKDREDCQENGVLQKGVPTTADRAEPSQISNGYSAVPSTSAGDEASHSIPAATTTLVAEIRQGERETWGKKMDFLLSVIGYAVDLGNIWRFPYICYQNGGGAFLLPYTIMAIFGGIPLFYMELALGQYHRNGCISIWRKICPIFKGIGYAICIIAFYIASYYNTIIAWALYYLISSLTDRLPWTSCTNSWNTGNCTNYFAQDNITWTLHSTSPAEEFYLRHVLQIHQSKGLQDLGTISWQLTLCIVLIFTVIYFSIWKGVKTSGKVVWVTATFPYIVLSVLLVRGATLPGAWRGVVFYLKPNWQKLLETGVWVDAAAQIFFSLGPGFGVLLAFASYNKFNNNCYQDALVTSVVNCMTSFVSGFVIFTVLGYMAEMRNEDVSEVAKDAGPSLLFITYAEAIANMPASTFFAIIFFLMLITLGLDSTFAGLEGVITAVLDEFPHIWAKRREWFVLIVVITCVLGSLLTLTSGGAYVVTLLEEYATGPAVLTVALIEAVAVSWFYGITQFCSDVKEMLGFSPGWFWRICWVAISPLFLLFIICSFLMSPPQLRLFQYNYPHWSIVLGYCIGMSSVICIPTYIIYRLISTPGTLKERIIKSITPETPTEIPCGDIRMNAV

[11] = target: Sodium-dependent dopamine transporter (Rattus norvegicus, UniProt P23977)
Sequence of Sodium-dependent dopamine transporter (Rattus norvegicus, UniProt P23977) (P23977 whole entry): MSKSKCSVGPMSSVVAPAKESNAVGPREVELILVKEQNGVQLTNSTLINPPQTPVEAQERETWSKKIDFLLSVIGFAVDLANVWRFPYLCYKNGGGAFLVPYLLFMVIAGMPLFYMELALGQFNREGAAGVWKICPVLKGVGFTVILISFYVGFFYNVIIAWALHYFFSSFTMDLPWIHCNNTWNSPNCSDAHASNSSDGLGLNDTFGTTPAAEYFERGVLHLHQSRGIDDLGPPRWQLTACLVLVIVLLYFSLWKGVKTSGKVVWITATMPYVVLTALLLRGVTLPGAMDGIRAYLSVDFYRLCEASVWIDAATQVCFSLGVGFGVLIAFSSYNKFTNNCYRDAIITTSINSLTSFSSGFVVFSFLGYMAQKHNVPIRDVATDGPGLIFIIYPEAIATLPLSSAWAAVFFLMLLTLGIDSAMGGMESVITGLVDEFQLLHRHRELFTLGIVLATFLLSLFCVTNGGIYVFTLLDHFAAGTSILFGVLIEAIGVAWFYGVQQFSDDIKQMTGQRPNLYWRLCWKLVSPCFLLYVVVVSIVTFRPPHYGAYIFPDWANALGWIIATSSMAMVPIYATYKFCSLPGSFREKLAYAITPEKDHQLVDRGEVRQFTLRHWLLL

[12] = target: Norepinephrine transporter (Rattus norvegicus, UniProt Q9JIA2)
[13] = target: Sodium-dependent noradrenaline transporter (Homo sapiens, UniProt P23975)
Sequence of Sodium-dependent noradrenaline transporter (P23975 whole entry): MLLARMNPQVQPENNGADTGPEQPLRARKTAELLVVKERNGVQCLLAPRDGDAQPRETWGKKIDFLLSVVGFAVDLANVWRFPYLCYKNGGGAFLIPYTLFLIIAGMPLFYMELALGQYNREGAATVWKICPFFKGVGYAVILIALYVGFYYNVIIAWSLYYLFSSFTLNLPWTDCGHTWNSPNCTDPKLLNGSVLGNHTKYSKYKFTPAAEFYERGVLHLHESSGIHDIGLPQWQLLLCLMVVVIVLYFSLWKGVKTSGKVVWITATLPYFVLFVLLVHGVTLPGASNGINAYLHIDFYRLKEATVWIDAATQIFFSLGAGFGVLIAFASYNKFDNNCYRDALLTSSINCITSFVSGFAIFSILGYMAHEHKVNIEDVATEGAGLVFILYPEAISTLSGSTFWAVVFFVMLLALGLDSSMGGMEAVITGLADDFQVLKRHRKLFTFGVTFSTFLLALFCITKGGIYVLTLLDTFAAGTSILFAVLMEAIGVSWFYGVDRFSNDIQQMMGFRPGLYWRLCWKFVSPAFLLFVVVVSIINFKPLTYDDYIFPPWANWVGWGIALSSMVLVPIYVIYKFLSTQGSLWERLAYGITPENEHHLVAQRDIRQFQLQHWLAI

[14] = target: Sodium-dependent dopamine transporter (Homo sapiens, UniProt Q01959)
Sequence of Sodium-dependent dopamine transporter (Homo sapiens, UniProt Q01959) (Q01959 whole entry): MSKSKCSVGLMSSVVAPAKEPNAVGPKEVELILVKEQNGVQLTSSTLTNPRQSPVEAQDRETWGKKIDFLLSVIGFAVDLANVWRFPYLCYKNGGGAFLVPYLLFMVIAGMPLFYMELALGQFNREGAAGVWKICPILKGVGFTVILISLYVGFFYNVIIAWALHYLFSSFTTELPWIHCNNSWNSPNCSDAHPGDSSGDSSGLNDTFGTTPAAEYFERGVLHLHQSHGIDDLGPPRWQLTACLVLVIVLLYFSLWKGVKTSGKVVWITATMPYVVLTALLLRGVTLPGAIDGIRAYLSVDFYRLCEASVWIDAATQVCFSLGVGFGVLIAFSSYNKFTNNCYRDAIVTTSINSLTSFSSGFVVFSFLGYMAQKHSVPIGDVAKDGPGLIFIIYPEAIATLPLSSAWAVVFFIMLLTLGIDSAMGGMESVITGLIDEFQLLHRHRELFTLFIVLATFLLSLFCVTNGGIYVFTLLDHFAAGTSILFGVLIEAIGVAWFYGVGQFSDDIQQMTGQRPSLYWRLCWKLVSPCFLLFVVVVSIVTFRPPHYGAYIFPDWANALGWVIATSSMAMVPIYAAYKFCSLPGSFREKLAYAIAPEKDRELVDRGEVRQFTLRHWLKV

Row | Structure (SMILES) | Ki [1] [µM] | Ki [2] [µM] | Ki [3] [µM] | Ki [4] [µM] | Ki [5] [µM] | Ki [6] [µM] | Ki [7] [µM] | Ki [8] [µM] | Ki [9] [µM] | Ki [10] [µM] | Ki [11] [µM] | Ki [12] [µM] | Ki [13] [µM] | Ki [14] [µM]
1 | COc1ccc(C(CN(C)C)C2(O)CCCCC2)cc1 (configuration not stated) [NSC_62923] | > 10 | > 10 | > 10 | > 10 | > 10 | > 10 | > 10 |  |  |  |  |  |  | 
2 | CN(C)CCCC1(c2ccc(F)cc2)OCc2cc(C#N)ccc21 (configuration not stated) |  | > 10 | > 10 | > 10 |  |  | > 10 | > 10 | > 10 |  |  |  |  | 
3 | COc1ccc2c(c1)C(CN(C)C)(C1(O)CCCCC1)C2 (configuration not stated) [S33005] | > 10 | > 10 | > 10 | > 10 | > 10 | > 10 | > 10 | > 10 | > 10 | 0.00195 | > 10 | 0.178 | 1.51 | > 10
4 | CN(C)CCCN1c2ccccc2CCc2ccc(Cl)cc21 [CLOMIPRAMINE HYDROCHLORIDE] | 0.0032 | > 10 | 0.525 | > 10 | 0.0776 | 0.0646 | > 10 |  | > 10 |  | 1.23 |  |  | 3.02
